Results from PMC3930694, “Small Molecule Inhibitors Target the Tissue Transglutaminase and Fibronectin Interaction” (PLoS ONE, 2014).

Target: T1, Tissue transglutaminase (TG2) (Homo sapiens, UniProt P21980)
T1 construct: gene TGM2; Full length TG2, His6-tagged, expressed in E. coli
Test: competition ELISA with purified His6-TG2 and biotinylated FN42 (FN42 saturation curves, Lineweaver-Burk); AlphaLISA
Format: binding

T1 sequence (P21980 whole entry): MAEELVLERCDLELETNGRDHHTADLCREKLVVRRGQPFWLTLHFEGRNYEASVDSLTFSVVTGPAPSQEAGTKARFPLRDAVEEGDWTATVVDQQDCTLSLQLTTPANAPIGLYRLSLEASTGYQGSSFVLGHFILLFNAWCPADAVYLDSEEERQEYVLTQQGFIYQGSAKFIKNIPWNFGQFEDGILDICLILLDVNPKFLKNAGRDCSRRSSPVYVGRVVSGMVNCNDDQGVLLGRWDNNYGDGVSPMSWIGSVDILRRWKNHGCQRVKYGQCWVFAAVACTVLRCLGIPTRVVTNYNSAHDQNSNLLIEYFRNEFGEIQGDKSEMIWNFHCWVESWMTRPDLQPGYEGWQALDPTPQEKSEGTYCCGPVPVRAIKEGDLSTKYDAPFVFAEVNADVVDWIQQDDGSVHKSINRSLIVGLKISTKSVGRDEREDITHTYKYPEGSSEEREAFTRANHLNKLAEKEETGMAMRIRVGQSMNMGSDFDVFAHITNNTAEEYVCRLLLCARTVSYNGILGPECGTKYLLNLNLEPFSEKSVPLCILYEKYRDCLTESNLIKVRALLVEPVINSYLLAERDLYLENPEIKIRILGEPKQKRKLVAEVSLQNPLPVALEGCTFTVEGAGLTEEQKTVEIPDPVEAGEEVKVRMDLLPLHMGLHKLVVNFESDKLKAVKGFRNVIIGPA
T1 sequence (P02751 32-2477 partner): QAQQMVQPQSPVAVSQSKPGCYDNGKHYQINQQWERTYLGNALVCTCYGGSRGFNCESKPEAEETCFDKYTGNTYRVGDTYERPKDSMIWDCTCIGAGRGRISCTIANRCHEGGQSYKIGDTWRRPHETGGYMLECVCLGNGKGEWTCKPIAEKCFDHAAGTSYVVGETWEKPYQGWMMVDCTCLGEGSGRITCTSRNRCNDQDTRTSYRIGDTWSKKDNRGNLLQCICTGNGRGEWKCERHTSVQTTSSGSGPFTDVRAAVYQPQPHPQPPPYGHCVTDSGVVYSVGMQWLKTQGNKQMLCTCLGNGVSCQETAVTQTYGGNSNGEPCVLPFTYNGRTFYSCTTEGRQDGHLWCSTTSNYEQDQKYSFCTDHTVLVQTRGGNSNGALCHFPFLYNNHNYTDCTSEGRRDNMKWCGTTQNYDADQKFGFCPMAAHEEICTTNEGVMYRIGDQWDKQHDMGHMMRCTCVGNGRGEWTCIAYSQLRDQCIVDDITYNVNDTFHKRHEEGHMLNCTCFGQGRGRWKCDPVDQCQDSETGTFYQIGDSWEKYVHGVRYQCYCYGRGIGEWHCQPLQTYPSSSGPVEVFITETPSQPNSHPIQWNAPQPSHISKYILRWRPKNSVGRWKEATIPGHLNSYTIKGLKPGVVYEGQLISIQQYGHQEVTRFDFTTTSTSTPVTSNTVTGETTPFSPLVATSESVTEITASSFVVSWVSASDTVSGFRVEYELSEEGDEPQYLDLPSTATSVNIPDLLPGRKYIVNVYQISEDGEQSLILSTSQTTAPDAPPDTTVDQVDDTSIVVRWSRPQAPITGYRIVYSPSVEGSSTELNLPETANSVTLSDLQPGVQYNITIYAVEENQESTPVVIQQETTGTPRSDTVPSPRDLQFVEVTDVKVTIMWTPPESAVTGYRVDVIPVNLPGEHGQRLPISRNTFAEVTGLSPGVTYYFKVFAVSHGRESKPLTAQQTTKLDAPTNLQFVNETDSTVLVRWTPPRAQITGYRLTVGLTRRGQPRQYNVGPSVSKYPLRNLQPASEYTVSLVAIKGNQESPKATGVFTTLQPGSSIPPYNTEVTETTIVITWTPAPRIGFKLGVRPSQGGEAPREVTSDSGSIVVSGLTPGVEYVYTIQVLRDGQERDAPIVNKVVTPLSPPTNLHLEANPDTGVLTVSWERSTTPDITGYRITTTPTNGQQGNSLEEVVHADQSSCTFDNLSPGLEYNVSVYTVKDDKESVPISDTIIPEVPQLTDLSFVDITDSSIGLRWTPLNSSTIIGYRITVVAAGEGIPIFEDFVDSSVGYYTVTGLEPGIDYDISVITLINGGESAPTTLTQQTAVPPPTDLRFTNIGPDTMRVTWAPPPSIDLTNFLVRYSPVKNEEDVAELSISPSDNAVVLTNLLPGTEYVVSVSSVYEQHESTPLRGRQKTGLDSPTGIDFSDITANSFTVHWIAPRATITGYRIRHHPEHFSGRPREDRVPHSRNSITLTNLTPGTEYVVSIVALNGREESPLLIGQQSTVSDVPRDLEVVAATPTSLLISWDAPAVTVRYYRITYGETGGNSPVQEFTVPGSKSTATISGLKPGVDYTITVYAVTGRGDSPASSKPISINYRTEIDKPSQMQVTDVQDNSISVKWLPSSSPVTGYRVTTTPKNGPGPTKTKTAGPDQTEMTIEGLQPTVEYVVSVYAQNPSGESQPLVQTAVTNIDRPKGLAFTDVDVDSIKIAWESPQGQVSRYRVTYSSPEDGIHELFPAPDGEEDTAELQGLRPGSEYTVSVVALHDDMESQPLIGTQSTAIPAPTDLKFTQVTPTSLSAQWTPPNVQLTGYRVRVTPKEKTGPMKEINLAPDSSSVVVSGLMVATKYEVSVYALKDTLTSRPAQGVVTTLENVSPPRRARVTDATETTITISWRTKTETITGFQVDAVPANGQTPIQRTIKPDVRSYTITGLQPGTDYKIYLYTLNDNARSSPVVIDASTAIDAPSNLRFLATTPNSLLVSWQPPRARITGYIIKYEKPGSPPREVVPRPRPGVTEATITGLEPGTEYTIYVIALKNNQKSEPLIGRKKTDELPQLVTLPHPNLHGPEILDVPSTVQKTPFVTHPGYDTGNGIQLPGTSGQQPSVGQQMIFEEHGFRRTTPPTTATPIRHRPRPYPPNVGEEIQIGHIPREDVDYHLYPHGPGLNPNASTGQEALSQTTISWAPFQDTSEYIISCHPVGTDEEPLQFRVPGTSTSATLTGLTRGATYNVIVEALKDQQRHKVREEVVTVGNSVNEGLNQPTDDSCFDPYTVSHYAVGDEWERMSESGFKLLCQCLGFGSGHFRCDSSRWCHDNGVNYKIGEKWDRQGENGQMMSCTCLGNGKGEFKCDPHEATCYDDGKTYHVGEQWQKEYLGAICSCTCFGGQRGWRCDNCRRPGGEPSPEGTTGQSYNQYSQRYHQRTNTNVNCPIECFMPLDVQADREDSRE

Ki: 4.15 µM
Structure (SMILES): COc1ccc(Cl)cc1C(=O)Nc1ccc(Nc2nc(C)cc(N(C)C)n2)cc1 [TG53]
